Measurements as given in ChEMBL document CHEMBL1201862, “PubChem BioAssay data set” (2004).
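Assay format: 96-well plates, 48-hour exposure. Here, GI50 denotes the concentration required for 50% inhibition of growth.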 Activity calls are given as the source filed them. Rule as the data show it: active = GI50 up to about 1.1 µM and inactive = higher.

How the values were obtained:
Experiment in all cases: NCI anticancer screen, dose series, 48 h
NCI-H226 = tested on: NCI-H226
SNB-75 = tested on: SNB-75
OVCAR-5 = tested on: OVCAR-5
SK-MEL-28 = tested on: SK-MEL-28
HOP-62 = tested on: HOP-62
SN12C = tested on: SN12C
OVCAR-3 = tested on: OVCAR-3
OVCAR-4 = tested on: OVCAR-4
MDA-N = tested on: MDA-N
HCT-116 = tested on: HCT-116
LOX IMVI = tested on: LOX IMVI
SK-OV-3 = tested on: SK-OV-3
M14 = tested on: M14
SK-MEL-2 = tested on: SK-MEL-2
ACHN = tested on: ACHN
BT-549 = tested on: BT-549
SF-268 = tested on: SF-268
Hs-578T = tested on: Hs-578T
HCT-15 = tested on: HCT-15
SK-MEL-5 = tested on: SK-MEL-5

Row | SMILES | GI50 (NCI-H226) | GI50 (SNB-75) | GI50 (OVCAR-5) | GI50 (SK-MEL-28) | GI50 (HOP-62) | GI50 (SN12C) | GI50 (OVCAR-3) | GI50 (OVCAR-4) | GI50 (MDA-N) | GI50 (HCT-116) | GI50 (LOX IMVI) | GI50 (SK-OV-3) | GI50 (M14) | GI50 (SK-MEL-2) | GI50 (ACHN) | GI50 (BT-549) | GI50 (SF-268) | GI50 (Hs-578T) | GI50 (HCT-15) [µM] | GI50 (SK-MEL-5)
1 | CCCCOC(=O)C1CN2C=CC=NC2=NC1(C(F)(F)F)C(F)(F)F (centres undefined) | > 100 µM (inactive) | > 100 µM (inactive) | > 100 µM (inactive) | > 100 µM (inactive) | > 100 µM (inactive) | > 100 µM (inactive) | > 100 µM (inactive) | > 100 µM (inactive) | > 100 µM (inactive) | > 100 µM (inactive) | > 100 µM (inactive) | > 100 µM (inactive) | > 100 µM (inactive) | > 100 µM (inactive) | > 100 µM (inactive) | > 100 µM (inactive) | > 100 µM (inactive) | > 100 µM (inactive) | > 100 | > 100 µM (inactive)
2 | C[N+]1(CCCl)CC[N+](C)(CCCl)CC1 (centres undefined) | > 100 µM (inactive) | 42.1 µM (inactive) | > 100 µM (inactive) | > 100 µM (inactive) | > 100 µM (inactive) | > 100 µM (inactive) | > 100 µM (inactive) | > 100 µM (inactive) | > 100 µM (inactive) | > 100 µM (inactive) | > 100 µM (inactive) | > 100 µM (inactive) | > 100 µM (inactive) | > 100 µM (inactive) | > 100 µM (inactive) | > 100 µM (inactive) | > 100 µM (inactive) | > 100 µM (inactive) | > 100 | > 100 µM (inactive)
3 | CCOC(=O)c1c(Br)c(-c2ccc(Br)cc2)c(Br)n1C | 15.5 µM (inactive) | 3.18 µM (inactive) | 19.4 µM (inactive) | 15.3 µM (inactive) | 19.9 µM (inactive) | 25.2 µM (inactive) | 14.7 µM (inactive) | 19.3 µM (inactive) | 3.4 µM (inactive) | 6.32 µM (inactive) | 7.16 µM (inactive) | 32.8 µM (inactive) | 18.8 µM (inactive) | > 10 µM (inactive) | 23.4 µM (inactive) | 14.5 µM (inactive) | 19.7 µM (inactive) | 34.3 µM (inactive) | 13 | 17.5 µM (inactive)
4 | CCCCCC(=O)OCC(=O)[C@H]1[C@H](C)C[C@H]2[C@@H]3C[C@H](F)C4=C/C(=N/OC(=O)c5cccc6c(=O)c7ccccc7[nH]c56)C=C[C@]4(C)[C@H]3[C@@H](O)C[C@@]21C | 4.78 µM (inactive) | 19.1 µM (inactive) | 32.8 µM (inactive) |  | 33.4 µM (inactive) | 20 µM (inactive) | 18.9 µM (inactive) | 27.4 µM (inactive) | 28.3 µM (inactive) | 26.4 µM (inactive) | 17.6 µM (inactive) | 24.8 µM (inactive) | 28.6 µM (inactive) | 23.1 µM (inactive) | 19.9 µM (inactive) | 16.5 µM (inactive) | 53.8 µM (inactive) | 31.7 µM (inactive) | 26.6 | 14.7 µM (inactive)
5 | c1ccc(NN=C(c2ccccn2)c2ccccn2)nc1 | 0.285 µM (active) | 2.56 µM (inactive) | 0.794 µM (active) | 0.869 µM (active) | 0.346 µM (active) | 0.142 µM (active) | < 0.0217 µM (active) | 0.213 µM (active) | 0.533 µM (active) | 0.0785 µM (active) | 0.269 µM (active) | 0.369 µM (active) | 0.152 µM (active) | 0.49 µM (active) | 0.159 µM (active) | 6.18 µM (inactive) | 0.388 µM (active) | 4.82 µM (inactive) | 0.0893 | 0.0893 µM (active)
6 | CSCCC(NC(=O)Cc1ccc(C(=O)c2ccccc2)cc1)C(=O)O (centres undefined) | > 100 µM (inactive) | > 100 µM (inactive) | > 100 µM (inactive) | > 100 µM (inactive) | > 100 µM (inactive) | > 100 µM (inactive) | > 100 µM (inactive) | > 100 µM (inactive) | > 100 µM (inactive) | > 100 µM (inactive) | > 100 µM (inactive) | > 100 µM (inactive) | > 100 µM (inactive) | > 100 µM (inactive) | > 100 µM (inactive) | > 100 µM (inactive) | > 100 µM (inactive) | > 100 µM (inactive) | > 100 | > 100 µM (inactive)
7 | Cc1ncc([N+](=O)[O-])n1CCNS(=O)(=O)CCCn1ncnc1[N+](=O)[O-] | > 100 µM (inactive) | > 100 µM (inactive) | > 100 µM (inactive) | > 100 µM (inactive) | > 100 µM (inactive) | > 100 µM (inactive) | > 100 µM (inactive) | > 100 µM (inactive) | > 100 µM (inactive) | > 100 µM (inactive) | > 100 µM (inactive) | > 100 µM (inactive) | > 100 µM (inactive) | > 100 µM (inactive) | > 100 µM (inactive) | > 100 µM (inactive) | > 100 µM (inactive) | > 100 µM (inactive) | > 100 | > 100 µM (inactive)
8 | Oc1nc2c(c(-c3ccc(F)cc3)n1)COC/C2=C\c1ccc(F)cc1 | > 100 µM (inactive) | > 100 µM (inactive) | > 100 µM (inactive) |  | > 100 µM (inactive) | > 100 µM (inactive) | > 100 µM (inactive) | > 100 µM (inactive) | > 100 µM (inactive) | > 100 µM (inactive) | > 100 µM (inactive) | > 100 µM (inactive) | > 100 µM (inactive) | > 100 µM (inactive) | > 100 µM (inactive) | > 100 µM (inactive) | > 100 µM (inactive) | > 100 µM (inactive) | > 100 | > 100 µM (inactive)
9 | CCOc1ccncc1[N+](=O)[O-] | > 100 µM (inactive) | > 100 µM (inactive) | > 100 µM (inactive) | > 100 µM (inactive) | > 100 µM (inactive) | > 100 µM (inactive) |  |  | > 100 µM (inactive) | > 100 µM (inactive) | > 100 µM (inactive) | > 100 µM (inactive) | > 100 µM (inactive) | > 100 µM (inactive) | > 100 µM (inactive) | > 100 µM (inactive) | > 100 µM (inactive) | > 100 µM (inactive) | > 100 | > 100 µM (inactive)
10 | C=C(Cl)C(C)(Cl)CCC(Cl)C(C)C (centres undefined) | > 100 µM (inactive) | 24.6 µM (inactive) | > 100 µM (inactive) | > 100 µM (inactive) | > 100 µM (inactive) | > 100 µM (inactive) | > 100 µM (inactive) | > 100 µM (inactive) | 43.2 µM (inactive) | > 100 µM (inactive) | 15.3 µM (inactive) | 29.6 µM (inactive) | 57.7 µM (inactive) | > 100 µM (inactive) | > 100 µM (inactive) | > 100 µM (inactive) | > 100 µM (inactive) | > 100 µM (inactive) |  | > 100 µM (inactive)
11 | COCC(=O)OC1CCn2c1nc1c2C(=O)C(C)=C(NC(C)=O)C1=O (centres undefined) | 11.1 µM (inactive) | 5.42 µM (inactive) | 8.57 µM (inactive) | 15.1 µM (inactive) | 21.5 µM (inactive) | 7.26 µM (inactive) | 1.66 µM (inactive) | 1.85 µM (inactive) | 1.85 µM (inactive) | 3.05 µM (inactive) | 4.34 µM (inactive) | 15.4 µM (inactive) | 11.1 µM (inactive) | 4.04 µM (inactive) | 8.91 µM (inactive) | 11.7 µM (inactive) | 6.73 µM (inactive) | 4.06 µM (inactive) | 14.4 | 13.5 µM (inactive)
12 | O=S(=O)(O)c1c(/N=N/c2c(O)ccc3ccccc23)ccc2ccccc12 | 19.4 µM (inactive) | > 100 µM (inactive) | > 100 µM (inactive) | > 100 µM (inactive) | > 100 µM (inactive) | > 100 µM (inactive) | > 100 µM (inactive) | > 100 µM (inactive) | > 100 µM (inactive) | > 100 µM (inactive) | > 100 µM (inactive) | 79.8 µM (inactive) | > 100 µM (inactive) | > 100 µM (inactive) |  | > 100 µM (inactive) | 51.4 µM (inactive) | > 100 µM (inactive) | > 100 | > 100 µM (inactive)
13 | O=C1Nc2ccccc2/C1=N/NC(=O)C(O)(c1ccccc1)c1ccccc1 | 20.6 µM (inactive) | 21.1 µM (inactive) | 17.2 µM (inactive) | 17.7 µM (inactive) |  |  | 20 µM (inactive) | 24.2 µM (inactive) | 16.9 µM (inactive) | 22.9 µM (inactive) | 16.7 µM (inactive) | 22.9 µM (inactive) | 16.7 µM (inactive) | 17 µM (inactive) | 29.4 µM (inactive) | 14.1 µM (inactive) | 27.1 µM (inactive) | 25.6 µM (inactive) | 16.4 | 16.2 µM (inactive)
14 | O=C1C(Cl)=C(NCCN2CCOCC2)C(=O)c2c(O)ccc(O)c21 | 9.95 µM (inactive) | 1.71 µM (inactive) | 1 µM (active) | 1.48 µM (inactive) | 1.92 µM (inactive) | 1.79 µM (inactive) | 2.49 µM (inactive) | 1.72 µM (inactive) | 1.9 µM (inactive) | 1.55 µM (inactive) | 1.33 µM (inactive) | 10 µM (inactive) | 1.84 µM (inactive) |  | 2.7 µM (inactive) | 2.24 µM (inactive) | 2.28 µM (inactive) | 3.13 µM (inactive) | 1.72 | 1.09 µM (active)
15 | CCOC(=O)CCc1cn2cc(Br)nc(OC)c2n1 | > 100 µM (inactive) | 26.1 µM (inactive) |  | > 100 µM (inactive) | 53.2 µM (inactive) | 75.9 µM (inactive) | 57.7 µM (inactive) | > 100 µM (inactive) | 3.1 µM (inactive) | 14.8 µM (inactive) | 90.2 µM (inactive) | 48.1 µM (inactive) | > 100 µM (inactive) | > 100 µM (inactive) |  | > 100 µM (inactive) | > 100 µM (inactive) | > 100 µM (inactive) | 6.5 | 7.85 µM (inactive)
